Legend:
PRMT5 [1] = target: T1, PRMT5 (Homo sapiens, UniProt O14744); assay: PRMT5 IC50 assay in the presence of SAM as cofactor; format: biochemical
T1 construct: purchased Viva (custom protein)
How it was run: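 For the SAM-containing format, dividing IC50 by 1.5 yields Ki; for the MTA-containing format the divisor is 13.5. A third format without cofactor gives IC50 alone.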

PRMT5 [2] = target: T1, PRMT5; assay: PRMT5 IC50 assay with no cofactor; format: biochemical
How it was run: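 Ki conversion: SAM arm, Ki=IC50/1.5; MTA arm, Ki=IC50/13.5. No-cofactor arm reported as IC50 only. Selectivity expressed as Ki(SAM)/Ki(MTA).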

PRMT5 [3] = target: T1, PRMT5; assay: PRMT5 IC50 assay in the presence of MTA as cofactor; format: biochemical; conditions: for IC50: PRMT5, MTA as cofactor; for SAM/MTA Ratio: ratio between the Ki in the presence of SAM and the Ki in the presence of MTA
How it was run: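 Three cofactor conditions are run: SAM-bound, MTA-bound and cofactor-free enzyme. IC50 is read from each; for the SAM and MTA arms it is divided by 1.5 and 13.5 respectively to give Ki.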

HAP1 MTAP-intact = assay: SDMA in-cell western assay, HAP1 MTAP-intact cell line; format: cell-based; conditions: Homo sapiens
How it was run: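 Using an MTAP-isogenic HAP1 cell pair, inhibition of SDMA formation is read by in-cell western and expressed as IC50. MTAP-selectivity is assigned where the ratio between lines reaches 3 fold or greater.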

HAP1 MTAP-deleted = assay: SDMA in-cell western assay, HAP1 MTAP-deleted cell line; format: cell-based; conditions: for IC50: Homo sapiens, HAP1 MTAP-deleted cell line; for MTAP Intact/Deleted Ratio: IC50 ratio HAP1 MTAP-intact / HAP1 MTAP-deleted
How it was run: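 In-cell western for SDMA marks; MTAP-deleted (null) HAP1 background; values given as IC50.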

T1 sequence (O14744 whole entry): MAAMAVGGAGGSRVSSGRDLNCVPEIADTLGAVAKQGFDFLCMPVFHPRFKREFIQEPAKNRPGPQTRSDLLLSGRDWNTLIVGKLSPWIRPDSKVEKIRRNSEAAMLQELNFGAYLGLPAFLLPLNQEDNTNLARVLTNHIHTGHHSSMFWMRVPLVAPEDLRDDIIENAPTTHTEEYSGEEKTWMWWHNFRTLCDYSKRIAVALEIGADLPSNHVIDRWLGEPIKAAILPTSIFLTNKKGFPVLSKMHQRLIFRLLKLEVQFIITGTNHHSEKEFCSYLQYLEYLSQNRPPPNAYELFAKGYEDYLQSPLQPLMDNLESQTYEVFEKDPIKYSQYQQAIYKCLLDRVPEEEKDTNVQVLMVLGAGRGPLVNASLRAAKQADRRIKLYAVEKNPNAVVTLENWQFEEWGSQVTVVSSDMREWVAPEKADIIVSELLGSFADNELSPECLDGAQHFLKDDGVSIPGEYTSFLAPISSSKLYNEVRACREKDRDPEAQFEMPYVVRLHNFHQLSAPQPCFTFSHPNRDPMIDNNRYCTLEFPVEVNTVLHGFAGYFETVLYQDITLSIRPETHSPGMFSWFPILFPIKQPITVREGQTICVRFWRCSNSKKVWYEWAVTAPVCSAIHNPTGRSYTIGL
T1 sequence (Q9BQA1 whole entry partner): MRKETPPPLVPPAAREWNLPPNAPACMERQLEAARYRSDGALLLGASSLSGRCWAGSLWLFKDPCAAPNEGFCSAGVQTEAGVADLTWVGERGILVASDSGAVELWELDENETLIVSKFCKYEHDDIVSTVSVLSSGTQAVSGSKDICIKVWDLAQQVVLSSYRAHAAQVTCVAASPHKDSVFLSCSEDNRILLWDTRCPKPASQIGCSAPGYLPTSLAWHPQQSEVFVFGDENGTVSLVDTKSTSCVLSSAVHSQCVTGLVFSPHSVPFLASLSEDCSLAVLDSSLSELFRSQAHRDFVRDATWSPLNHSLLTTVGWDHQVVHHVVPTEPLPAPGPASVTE

Row | SMILES | IC50 (PRMT5 [1]) | IC50 (PRMT5 [2]) | IC50 (PRMT5 [3]) | IC50 (HAP1 MTAP-intact) | IC50 (HAP1 MTAP-deleted) | SAM/MTA Ratio (PRMT5 [3]) | MTAP Intact/Deleted Ratio (HAP1 MTAP-deleted)
1 | Cc1ncoc1COc1ccc2c(c1C)CCN(C[C@@H](O)CNC(=O)c1cc(CC(C)C)nc(NC3CCC3)c1)C2 [Compound 504, 2-(cyclobutylamino)-N-[(2S)-2-hydroxy-3-{5-methyl-6-[(4-methyl-1,3-oxazol-5-yl)methoxy]-1,2,3,4-trihydroisoquinolin-2-yl}propyl]-6-(2-methylpropyl)pyridine-4-carboxamide] | 50 to 500 nM | ≥ 5000 nM | 50 to 500 nM | ≥ 10000 nM | ≥ 10000 nM | A (a Ki ratio greater than or equal to 10 fold between the Ki in the presence of SAM and the Ki in the presence of MTA) | C* (an IC50 ratio of less than 3 fold between the IC50 in the HAP1 MTAP-intact cell line and the HAP1 MTAP-deleted cell line)
2 | Cc1ncoc1COc1cc(F)c2c(c1)CCN(C[C@@H](O)CNC(=O)c1ccnc(NC3CCC3)c1)C2 [Compound 506, 2-(cyclobutylamino)-N-[(2S)-3-[8-fluoro-6-[(4-methyloxazol-5-yl)methoxy]-3,4-dihydro-1H-isoquinolin-2-yl]-2-hydroxy-propyl]pyridine-4-carboxamide] | 50 to 500 nM | ≥ 5000 nM | 50 to 500 nM | ≥ 10000 nM | 1000 to 10000 nM | A (a Ki ratio greater than or equal to 10 fold between the Ki in the presence of SAM and the Ki in the presence of MTA) | B* (an IC50 ratio greater than or equal to 3 fold but lower than 10 fold between the IC50 in the HAP1 MTAP-intact cell line and the HAP1 MTAP-deleted cell line)
3 | CC(=O)N1CCC(Nc2ccnc(C(=O)NC[C@H](O)CN3CCc4cc(OCc5cnco5)ccc4C3)c2)CC1 [Compound 507, (S)-4-((1-acetylpiperidin-4-yl)amino)-N-(2-hydroxy-3-(6-(oxazol-5-ylmethoxy)-3,4-dihydroisoquinolin-2(1H)-yl)propyl)picolinamide] | 50 to 500 nM | 500 to 5000 nM | 50 to 500 nM | ≥ 10000 nM | 1000 to 10000 nM | A (a Ki ratio greater than or equal to 10 fold between the Ki in the presence of SAM and the Ki in the presence of MTA) | B* (an IC50 ratio greater than or equal to 3 fold but lower than 10 fold between the IC50 in the HAP1 MTAP-intact cell line and the HAP1 MTAP-deleted cell line)
4 | O=C(NC[C@H](O)CN1CCc2cc(OCc3cnco3)ccc2C1)c1cc(NC2CCC2)ccn1 [Compound 509, (S)-4-(cyclobutylamino)-N-(2-hydroxy-3-(6-(oxazol-5-ylmethoxy)-3,4-dihydroisoquinolin-2(1H)-yl)propyl)picolinamide] | 500 to 5000 nM | 500 to 5000 nM | 50 to 500 nM | 1000 to 10000 nM | < 1000 nM | A (a Ki ratio greater than or equal to 10 fold between the Ki in the presence of SAM and the Ki in the presence of MTA) | C* (an IC50 ratio of less than 3 fold between the IC50 in the HAP1 MTAP-intact cell line and the HAP1 MTAP-deleted cell line)
5 | CC(=O)N1CC(Nc2cc(C(=O)NC[C@H](O)CN3CCc4c(ccc(OCc5cnco5)c4C)C3)ccn2)C1 [Compound 512, (S)-2-((1-acetylazetidin-3-yl)amino)-N-(2-hydroxy-3-(5-methyl-6-(oxazol-5-ylmethoxy)-3,4-dihydroisoquinolin-2(1H)-yl)propyl)isonicotinamide] | 50 to 500 nM | ≥ 5000 nM | 50 to 500 nM | ≥ 10000 nM | ≥ 10000 nM | A (a Ki ratio greater than or equal to 10 fold between the Ki in the presence of SAM and the Ki in the presence of MTA) | C* (an IC50 ratio of less than 3 fold between the IC50 in the HAP1 MTAP-intact cell line and the HAP1 MTAP-deleted cell line)
6 | O=C(NC[C@H](O)CN1CCc2cc(OCc3cnco3)c(F)cc2C1)c1ccnc(NC2CCC2)c1 [Compound 513, 2-(cyclobutylamino)-N-[(2S)-3-[7-fluoro-6-(oxazol-5-ylmethoxy)-3,4-dihydro-1H-isoquinolin-2-yl]-2-hydroxy-propyl]pyridine-4-carboxamide] | 500 to 5000 nM | ≥ 5000 nM | 50 to 500 nM | ≥ 10000 nM | 1000 to 10000 nM | A (a Ki ratio greater than or equal to 10 fold between the Ki in the presence of SAM and the Ki in the presence of MTA) | B* (an IC50 ratio greater than or equal to 3 fold but lower than 10 fold between the IC50 in the HAP1 MTAP-intact cell line and the HAP1 MTAP-deleted cell line)
7 | Cc1c(OCc2cnco2)ccc2c1CCN(C[C@@H](O)CNC(=O)c1cc(NC3CCC3)ccn1)C2 [Compound 515, 4-(cyclobutylamino)-N-[(2S)-2-hydroxy-3-{5-methyl-6-[(1,3-oxazol-5-yl)methoxy]-1,2,3,4-tetrahydroisoquinolin-2-yl}propyl]pyridine-2-carboxamide] | 500 to 5000 nM | ≥ 5000 nM | 50 to 500 nM | 1000 to 10000 nM | 1000 to 10000 nM | A (a Ki ratio greater than or equal to 10 fold between the Ki in the presence of SAM and the Ki in the presence of MTA) | C* (an IC50 ratio of less than 3 fold between the IC50 in the HAP1 MTAP-intact cell line and the HAP1 MTAP-deleted cell line)

Further lines, with some results ahead:

Row | IC50 (PRMT5 [1]) | IC50 (PRMT5 [2]) | IC50 (PRMT5 [3]) | IC50 (HAP1 MTAP-intact) | IC50 (HAP1 MTAP-deleted) | SMILES | SAM/MTA Ratio (PRMT5 [3]) | MTAP Intact/Deleted Ratio (HAP1 MTAP-deleted)
8 | 50 to 500 nM | 500 to 5000 nM | 50 to 500 nM | < 1000 nM | < 1000 nM | Cc1ncoc1COc1ccc2c(c1)CCN(C[C@@H](O)CNC(=O)c1cc(NC3CCC3)ccn1)C2 [Compound 516, 4-(cyclobutylamino)-N-[(2S)-2-hydroxy-3-(6-[(4-methyl-1,3-oxazol-5-yl)methoxy]-1,2,3,4-tetrahydroisoquinolin-2-yl}propyl]pyridine-2-carboxamide] | A (a Ki ratio greater than or equal to 10 fold between the Ki in the presence of SAM and the Ki in the presence of MTA) | C* (an IC50 ratio of less than 3 fold between the IC50 in the HAP1 MTAP-intact cell line and the HAP1 MTAP-deleted cell line)
9 | 50 to 500 nM | 500 to 5000 nM | 50 to 500 nM | ≥ 10000 nM | 1000 to 10000 nM | CC(=O)N1CCC(Nc2cc(C(=O)NC[C@H](O)CN3CCc4c(ccc(OCc5cnco5)c4C)C3)ccn2)CC1 [Compound 517] | A (a Ki ratio greater than or equal to 10 fold between the Ki in the presence of SAM and the Ki in the presence of MTA) | B* (an IC50 ratio greater than or equal to 3 fold but lower than 10 fold between the IC50 in the HAP1 MTAP-intact cell line and the HAP1 MTAP-deleted cell line)
10 | 50 to 500 nM | ≥ 5000 nM | 50 to 500 nM | ≥ 10000 nM | 1000 to 10000 nM | Cc1c(OCc2cnco2)ccc2c1CCN(C[C@@H](O)CNC(=O)c1cc(NC3CCN(C(=O)C(C)C)CC3)ncn1)C2 [Compound 520, N-[(2S)-2-hydroxy-3-{5-methyl-6-[(1,3-oxazol-5-yl)methoxy]-1,2,3,4-tetrahydroisoquinolin-2-yl}propyl]-6-{[1-(2-methylpropanoyl)piperidin-4-yl]amino}pyrimidine-4-carboxamide] | A (a Ki ratio greater than or equal to 10 fold between the Ki in the presence of SAM and the Ki in the presence of MTA) | B* (an IC50 ratio greater than or equal to 3 fold but lower than 10 fold between the IC50 in the HAP1 MTAP-intact cell line and the HAP1 MTAP-deleted cell line)
11 | 50 to 500 nM | ≥ 5000 nM | 50 to 500 nM | ≥ 10000 nM | ≥ 10000 nM | Cc1c(OCc2cnco2)ccc2c1CCN(C[C@@H](O)CNC(=O)c1ccnc(NC3CN(C(=O)CC(C)C)C3)c1)C2 [Compound 522, (S)—N-(2-hydroxy-3-(5-methyl-6-(oxazol-5-ylmethoxy)-3N-dihydroisoquinolin-2(1H)-yl)propyl)-2-((1-(3-methylbutanoyl)azetidin-3-yl)amino)isonicotinamide] | A (a Ki ratio greater than or equal to 10 fold between the Ki in the presence of SAM and the Ki in the presence of MTA) | C* (an IC50 ratio of less than 3 fold between the IC50 in the HAP1 MTAP-intact cell line and the HAP1 MTAP-deleted cell line)
12 | 50 to 500 nM | ≥ 5000 nM | 50 to 500 nM | ≥ 10000 nM | ≥ 10000 nM | Cc1c(OCc2cnco2)ccc2c1CCN(C[C@@H](O)CNC(=O)c1cc(NC3CCN(C(=O)C(C)(C)C)CC3)ncn1)C2 [Compound 523, 6-{[1-(2,2-dimethylpropanoyl)piperidin-4-yl]amino}-N-[(2S)-2-hydroxy-3-{5-methyl-6-[(1,3-oxazol-5-yl)methoxy]-1,2,3,4-tetrahydroisoquinolin-2-yl}propyl]pyrimidine-4-carboxamide] | A (a Ki ratio greater than or equal to 10 fold between the Ki in the presence of SAM and the Ki in the presence of MTA) | C* (an IC50 ratio of less than 3 fold between the IC50 in the HAP1 MTAP-intact cell line and the HAP1 MTAP-deleted cell line)
13 | 50 to 500 nM | 500 to 5000 nM | 50 to 500 nM | ≥ 10000 nM | 1000 to 10000 nM | CC(=O)N1CCC(Nc2cccc(C(=O)NC[C@H](O)CN3CCc4cc(OCc5cnco5)ccc4C3)c2)CC1 [Compound 527] | A (a Ki ratio greater than or equal to 10 fold between the Ki in the presence of SAM and the Ki in the presence of MTA) | B* (an IC50 ratio greater than or equal to 3 fold but lower than 10 fold between the IC50 in the HAP1 MTAP-intact cell line and the HAP1 MTAP-deleted cell line)

Source: patent US11986471B2, “Compounds and methods of use” (Tango Therapeutics, Inc., priority 2018, dated 2024)
